pIC50: −log10 of the molar value. Counter-ions that a name gives are not always drawn.

The target of the assay is T1, c-Myc/Max/Ebox DNA (Homo sapiens, UniProt P01106).
T1 construct: his6 (cleaved yes)
Put plainly: c-Myc/Max/Ebox DNA AlphaScreen Assay. Format: binding. The settings on record: calculated IC50; free c-Myc 20 nM, his6-Max 5 nM, biotinylated Ebox oligo 10 nM; 2 hour incubation. The protocol:
Compounds of the invention were assayed for c-Myc/Max/EBox activity as described in the following protocol. Human his6-c-Myc and his6-Max were used with biotinylated DNA containing a single Ebox sequence (biotin[…] (SEQ ID NO: 1)) purchased from MWG Operon. Free c-Myc was generated from his6-c-Myc through thrombin cleavage of the his6 tag (SEQ ID NO: 2). For 384-well plate assays, 10 μL of a 2× solution of free c-Myc (20 nM final), Ni^2+ coated Acceptor Beads (25 μg/ml final), and biotinylated Ebox oligo (10 nM final) were added to 384-well plates with a Biotek EL406 liquid handler. 50 nL of compounds from stock plates were added by pin transfer using a Janus Workstation (PerkinElmer), allowing the compounds to interact with c-Myc prior to c-Myc binding with Max. In the current assay, DMSO was not allowed to exceed 2% v/v of the assay. 10 μl of 2× master mix containing streptavidin-coated donor beads (25 μg/ml final) and his6-Max (5 nM) were added. AlphaScreen measurements were performed on an Envision plate reader (PerkinElmer) utilizing the manufacturer's protocol.
Both master mixes were made in room temperature assay buffer (50 mM HEPES, 150 mM NaCl, 0.2% w/v BSA, 0.02% w/v Tween20, 40 μg/ml glycogen, 500 μM DTT, pH 8.0, wherein both DTT and glycogen were added fresh). Alpha beads were added to respective master solutions. All subsequent steps were performed in low light conditions. Solution 1: 2× solution of components with final concentrations of c-Myc Ni-coated Acceptor Beads (25 μg/ml), and biotinylated Ebox oligo (10 nM). Solution 2: 2× solution of streptavidin-coated donor beads (25 μg/ml final) and his6-Max 10 μL. Solution 1 was added to 384-well plate (AlphaPlate-384, PerkinElmer) with Biotek EL406 liquid handler and the plates were centrifuged very briefly. 50 nL of compounds from stock plates were added by pin transfer using a Janus Workstation. Solution 2 (10 μL) was added with the liquid handler. Plates were sealed with foil to block light exposure and prevent evaporation. Plates were very briefly centrifuged followed by 2 hour incubation. AlphaScreen measurements were performed on an Envision 2104 utilizing the manufacturer's protocol. Excitation was at 680 nm for donor bead release of singlet oxygen and emission was read with a bandpass filter from 520-620 nm. Glycogen: Roche Diagnostics #10901393001. Plate 1536: Perkin Elmer, 6004350. Plate 384: Perkin Elmer, 6005350. Nickel-His Alpha Beads: 6760619R. The data from this assay are summarized in Table 2 below (Myc/Max/DNA Activity), where “A” represents a calculated IC50 of less than 500 nM; “B” represents a calculated IC50 of between 500 nM and 5 μM; “C” represents a calculated IC50 of between 5 μM and 10 μM; “D” represents a value of greater than 10 μM, and “NT” represents a compound for which an assay result was not obtained.

T1 sequence (P01106 whole entry): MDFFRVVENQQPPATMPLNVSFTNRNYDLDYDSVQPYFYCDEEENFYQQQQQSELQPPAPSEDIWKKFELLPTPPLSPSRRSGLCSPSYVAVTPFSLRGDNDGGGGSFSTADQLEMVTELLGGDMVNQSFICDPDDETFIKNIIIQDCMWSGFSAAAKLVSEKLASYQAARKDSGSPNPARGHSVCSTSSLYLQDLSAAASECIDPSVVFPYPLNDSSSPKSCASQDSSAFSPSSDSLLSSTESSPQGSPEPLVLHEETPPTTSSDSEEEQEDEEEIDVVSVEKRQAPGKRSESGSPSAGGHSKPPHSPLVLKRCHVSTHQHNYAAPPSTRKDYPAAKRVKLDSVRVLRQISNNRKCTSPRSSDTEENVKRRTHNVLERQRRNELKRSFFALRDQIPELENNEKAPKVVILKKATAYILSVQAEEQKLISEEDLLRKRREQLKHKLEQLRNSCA

`CC(C)NCCC(=O)Nc1sc2c(c1-c1nc(-c3ccccn3)cs1)CCNC2` [Compound 104, 3-(Isopropylamino)-N-(3-(4-(pyridin-2-yl)thiazol-2-yl)-4,5,6,7-tetrahydrothieno[2,3-c]pyridin-2-yl)propanamide]: the pIC50 was above 6.30.
Take `Cc1ccncc1-c1csc(-c2c(NC(=O)CCNC(C)C)sc3c2CCNC3)n1` [Compound 123]: the pIC50 is 5.30 to 6.30.
Consider `CC(C)NCCC(=O)Nc1sc2c(c1-c1nc(-c3cncnc3)cs1)CCNC2` [Compound 128], for which the pIC50 is above 6.30.
As for `Cc1cncc(-c2csc(-c3c(NC(=O)CCNC(C)C)sc4c3CCNC4)n2)c1` [Compound 122], the pIC50 is above 6.30.
Then `CC(C)NCCC(=O)Nc1sc2c(c1-c1nc(C3=CCOCC3)cs1)CCNC2` [Compound 130, N-(3-(4-(3,6-Dihydro-2H-pyran-4-yl)thiazol-2-yl)-4,5,6,7-tetrahydrothieno[2,3-c]pyridin-2-yl)-3-(isopropylamino)propanamide dihydrochloride], with 5.30 to 6.30; and `CC(C)NCCC(=O)Nc1sc2c(c1-c1nc(C(=O)O)cs1)CCNC2` [Compound 101, 2-(2-(3-(isopropylamino)propanamido)-4,5,6,7-tetrahydrothieno[2,3-c]pyridin-3-yl)thiazole-4-carboxylic acid], with 5.30 to 6.30.
In the case of `CC(C)NCCC(=O)Nc1sc2c(c1-c1nc(-c3ccc[nH]c3=O)cs1)CCNC2` [Compound 129], the pIC50 was above 6.30.
With `COc1cncc(-c2csc(-c3c(NC(=O)CCNC(C)C)sc4c3CCNC4)n2)c1` [Compound 119] the figure was above 6.30; with `CC(C)NCCC(=O)Nc1sc2c(c1-c1nc(-c3cncc(F)c3)cs1)CCNC2` [Compound 115], above 6.30.
In the case of `CC(=O)Nc1sc2c(c1-c1nc(-c3ccccc3)cs1)CCNC2` [Compound 100, N-(3-(4-phenylthiazol-2-yl)-4,5,6,7-tetrahydrothieno[2,3-c]pyridin-2-yl)acetamide], the pIC50 is below 5.00.
For the compound `COCCNCCC(=O)Nc1sc2c(c1-c1nc(-c3ccccn3)cs1)CCNC2` [Compound 110], the pIC50 was 5.30 to 6.30.
For `CC(C)NCCC(=O)Nc1sc2c(c1-c1nc(C(=O)Nc3ccccc3)cs1)CCNC2` [Compound 113, 2-(2-(3-(isopropylamino)propanamido)-4,5,6,7-tetrahydrothieno[2,3-c]pyridin-3-yl)-N-phenylthiazole-4-carboxamide], the pIC50 is below 5.00.
Turning to `CC(C)NCCC(=O)Nc1sc2c(c1-c1nc(C(=O)Nc3cccnc3)cs1)CCNC2` [Compound 124, 2-(2-(3-(Isopropylamino)propanamido)-4,5,6,7-tetrahydrothieno[2,3-c]pyridin-3-yl)-N-(pyridin-3-yl)thiazole-4-carboxamide], the pIC50 is above 6.30.
With `CC(C)NCCC(=O)Nc1sc2c(c1-c1nc(-c3cccnc3)cs1)CCNC2` [Compound 103], the pIC50 was above 6.30.
As to `COc1ncccc1-c1csc(-c2c(NC(=O)CCNC(C)C)sc3c2CCNC3)n1` [Compound 127], the pIC50 was above 6.30.
In the case of `CC(C)NCCC(=O)Nc1sc2c(c1-c1nc(-c3cnn(C)c3)cs1)CCNC2` [Compound 114], the pIC50 is above 6.30.
With `CC(C)NCCC(=O)Nc1sc2c(c1-c1nc(C3=CCNCC3)cs1)CCNC2` [Compound 126] the figure was above 6.30.
As for `Cc1cn(-c2csc(-c3c(NC(=O)CCNC(C)C)sc4c3CCNC4)n2)cn1` [Compound 117], the pIC50 is 5.30 to 6.30.
